Converted amounts (≈) assume the structure as drawn. Like-named read-outs stand apart in the source and are kept apart here.
What was measured:
S. typhi = experiment: Antimicrobial serial tube dilution, MIC and MBC; format: cell-based, Salmonella typhi MTCC 3216; conditions: for MIC / MBC: Salmonella enterica, TYPHI; for MIC: 24 h, read-out: S. typhi MIC; for MBC: read-out: S. typhi MBC
Experimental: (§1) The synthesized diazenyl chalcones (C18 to C27) and controls (dyes A and E, and chalcone) were assessed for their antimicrobial activity by estimation of MIC and MBC/MFC values. […] The stock solutions of the test compounds and standard drugs having a concentration of 1000 µg ml^−1 were prepared by dissolving the used compounds in DMSO. The nutrient broth/Sabouraud dextrose broth was used for the serial dilution of the test compounds and referenced drugs for bacterial and fungal cultures, respectively. […] The size of the final inoculum in each test tube was taken as 5 × 10^5 CFU ml^−1. The incubation of the test and standard compounds of varying concentrations was done for 24 h at 37 ± 2 °C (bacterial culture) and for 48 h at 37 ± 2 °C (C. albicans) and for 7 d at 25 ± 2 °C (A. fumigatus). The diazenyl chalcones (C18–C27), were further evaluated for their bactericidal/fungicidal activity by estimation of MBC/MFC values. […] For proper mixing of culture media, the plates were shaken gently followed by incubation at the predefined temperature and time as stated earlier, followed by the visual inspection of the plates for signs of microbial growth.

B. subtilis = experiment: Antimicrobial serial tube dilution, MIC and MBC; format: cell-based, Bacillus subtilis MTCC 2063
Experimental: as §1

E. coli = experiment: Antimicrobial serial tube dilution, MIC and MBC; format: cell-based, Escherichia coli MTCC 1652; conditions: for MBC / MIC: Escherichia coli; for MBC: read-out: E. coli MBC
Experimental: as §1

B. cereus = experiment: Antimicrobial serial tube dilution, MIC and MBC; format: cell-based, Bacillus cereus MTCC 1305
Experimental: as §1

S. aureus = experiment: Antimicrobial serial tube dilution, MIC and MBC; format: cell-based, Staphylococcus aureus MTCC 2901
Experimental: as §1

C. albicans = experiment: Antimicrobial serial tube dilution, MIC and MFC; format: cell-based, Candida albicans MTCC 227
Experimental: as §1

A. fumigatus = experiment: Antimicrobial serial tube dilution, MIC and MFC; format: cell-based, Aspergillus fumigatus MTCC 2584
Experimental: as §1

[1] = DPPH scavenging antioxidant assay
Experimental: The derivatives (C18–C27) were assessed for their antioxidant potential in the presence of the stable free radical DPPH using ascorbic acid as the standard compound [36, 37]. […] The total volume of 200 µl was used in each well for each concentration of the test and standard drug containing 0.004 µg DPPH. The assay was performed in triplicate at all concentrations of each sample and standard compound. DPPH solutions in methanol at the same concentration without test drugs were used as the control. Each concentration of the sample and standard has a different blank. To minimize evaporation, the plate was covered with the lid and wrapped in aluminium foil and kept in the dark place in order to protect the DPPH radical from degradation by light and left for 30 min. After 30 min of incubation, the plate was kept in ELISA reader to measure the absorbance values at 517 nm. The experiment was performed in triplicate. The antioxidant activity of each sample was then calculated as per cent inhibition of DPPH according to the following equation: %decolourationofDPPH=ControlAbs-SampleAbs×100/ControlAbs

[2] = Bacillus subtilis, 24 h, read-out: B. subtilis MIC
[3] = Bacillus cereus, 24 h, read-out: B. cereus MIC
[4] = Bacillus cereus; read-out: B. cereus MBC
[5] = Staphylococcus aureus; 24 h at 37 ± 2 °C; read-out: S. aureus MIC
[6] = Staphylococcus aureus; read-out: S. aureus MBC
[7] = Bacillus subtilis, read-out: B. subtilis MBC
[8] = 24 h, read-out: E. coli MIC, 24 h at 37 ± 2 °C

Question: For `O=C(O)c1cn(C2CC2)c2cc(N3CCNCC3)c(F)cc2c1=O` [CIP, ciprofloxacin, reference compound], which MIC (S. typhi) is on record?
Answer: The MIC was 7.81 µg/mL (≈ 23.6 µM).

Question: What about the MBC (S. typhi) of the same compound?
Answer: Its MBC is 7.81 µg/mL (≈ 23.6 µM).

Question: What about the MIC (B. subtilis; [2]) of the same compound?
Answer: The MIC was 7.81 µg/mL (≈ 23.6 µM).

Question: What about the MBC (B. subtilis; Bacillus subtilis; read-out: B. subtilis MBC) of the same compound?
Answer: Its MBC is 15.6 µg/mL (≈ 47.1 µM).

Question: And the MBC (E. coli)?
Answer: Its MBC is 7.81 µg/mL (≈ 23.6 µM).

Question: And the MIC (E. coli; 24 h at 37 ± 2 °C, read-out: E. coli MIC)?
Answer: The MIC was 3.9 µg/mL (≈ 11.8 µM).

Question: What about the MIC (B. cereus; [3]) of the same compound?
Answer: Its MIC is 7.81 µg/mL (≈ 23.6 µM).

Question: What about the MBC (B. cereus; [4]) of the same compound?
Answer: The MBC was 15.6 µg/mL (≈ 47.1 µM).

Question: And the MIC (S. aureus; [5])?
Answer: The MIC was 1.95 µg/mL (≈ 5.89 µM).

Question: And the MBC (S. aureus; [6])?
Answer: Its MBC is 3.9 µg/mL (≈ 11.8 µM).

Question: With `O=C(/C=C\c1cccc(Br)c1)c1cccc(N=Nc2cc(Cl)ccc2Cl)c1O` [Compound C-26, (2Z)-3-(3-Bromophenyl)-1-(3-((2,5-dichlorophenyl)diazenyl)-2-hydroxyphenyl)prop-2-en-1-one] as the compound, how does the “S. typhi MBC” value (S. typhi) read?
Answer: The value was 62.5 µg/mL.

Question: What about the “S. typhi MIC” value (S. typhi; 24 h at 37 ± 2 °C) of the same compound?
Answer: Its value is 15.62 µg/mL.

Question: And the “B. subtilis MBC” value (B. subtilis)?
Answer: Its value is 62.5 µg/mL.

Question: And the “B. subtilis MIC” value (B. subtilis; 24 h at 37 ± 2 °C)?
Answer: Its value is 62.5 µg/mL.

Question: And the “E. coli MBC” value (E. coli)?
Answer: The value was 125 µg/mL.

Question: What about the “E. coli MIC” value (E. coli; 24 h at 37 ± 2 °C) of the same compound?
Answer: The value was 62.5 µg/mL.

Question: What about the “B. cereus MBC” value (B. cereus) of the same compound?
Answer: The value was 250 µg/mL.

Question: And the “B. cereus MIC” value (B. cereus; 24 h at 37 ± 2 °C)?
Answer: The value was 250 µg/mL.

Question: What about the “C. albicans MFC” value (C. albicans) of the same compound?
Answer: Its value is 125 µg/mL.

Question: What about the “C. albicans MIC” value (C. albicans; 48 h at 37 ± 2 °C) of the same compound?
Answer: Its value is 125 µg/mL.

Question: What about the “A. fumigatus MFC” value (A. fumigatus) of the same compound?
Answer: Its value is 125 µg/mL.

Question: And the “A. fumigatus MIC” value (A. fumigatus; 7 d at 25 ± 2 °C)?
Answer: Its value is 125 µg/mL.

Question: What about the “S. aureus MBC” value (S. aureus) of the same compound?
Answer: Its value is 31.25 µg/mL.

Question: What about the “S. aureus MIC” value (S. aureus; 24 h at 37 ± 2 °C) of the same compound?
Answer: Its value is 7.81 µg/mL.

Question: And the “% inhibition of DPPH” value ([1]; 1.56 µg ml^−1)?
Answer: Its value is 5.72%.

Question: And the “% inhibition of DPPH” value ([1]; 3.12 µg ml^−1)?
Answer: Its value is 7.91%.

Question: And the “% inhibition of DPPH” value ([1]; 6.25 µg ml^−1)?
Answer: The value was 11.90%.

Question: And the “% inhibition of DPPH” value ([1]; 12.5 µg ml^−1)?
Answer: The value was 14.04%.

Question: What about the “% inhibition of DPPH” value ([1]; 25 µg ml^−1) of the same compound?
Answer: The value was 21.98%.

Question: What about the “% inhibition of DPPH” value ([1]; 50 µg ml^−1) of the same compound?
Answer: The value was 24.65%.

Question: What about the “% inhibition of DPPH” value ([1]; 100 µg ml^−1) of the same compound?
Answer: The value was 29.62%.

Question: What about the “log IC50 DPPH” value ([1]; Fig. 1) of the same compound?
Answer: Its value is 1.349.

Question: With `CC(=O)c1ccc(N=Nc2c(O)cccc2O)cc1` [Dye E, 1-(4-((2,6-Dihydroxyphenyl)diazenyl)phenyl)ethanone] as the compound, how does the MIC (S. typhi) read?
Answer: Its MIC is 125 µg/mL (≈ 488 µM).

Question: And the MBC (S. typhi)?
Answer: Its MBC is 125 µg/mL (≈ 488 µM).

Question: What about the MIC (B. subtilis; [2]) of the same compound?
Answer: Its MIC is 62.5 µg/mL (≈ 244 µM).

Question: And the MBC (B. subtilis; [7])?
Answer: Its MBC is 125 µg/mL (≈ 488 µM).

Question: And the MIC (E. coli; [8])?
Answer: Its MIC is 31.2 µg/mL (≈ 122 µM).

Question: What about the MBC (E. coli) of the same compound?
Answer: The MBC was 31.2 µg/mL (≈ 122 µM).

Question: And the MIC (B. cereus; [3])?
Answer: The MIC was 62.5 µg/mL (≈ 244 µM).

Question: And the MBC (B. cereus; Bacillus cereus, read-out: B. cereus MBC)?
Answer: Its MBC is 62.5 µg/mL (≈ 244 µM).

Question: And the MIC (C. albicans; Candida albicans, 48 h, read-out: C. albicans MIC)?
Answer: The MIC was 125 µg/mL (≈ 488 µM).

Question: And the MFC (C. albicans; Candida albicans, read-out: C. albicans MFC)?
Answer: Its MFC is 125 µg/mL (≈ 488 µM).

Question: What about the MIC (A. fumigatus; Aspergillus fumigatus, 168 h, read-out: A. fumigatus MIC) of the same compound?
Answer: Its MIC is 125 µg/mL (≈ 488 µM).

Question: And the MFC (A. fumigatus; Aspergillus fumigatus, read-out: A. fumigatus MFC)?
Answer: The MFC was 125 µg/mL (≈ 488 µM).

Question: What about the MIC (S. aureus; Staphylococcus aureus, 24 h, read-out: S. aureus MIC) of the same compound?
Answer: The MIC was 31.2 µg/mL (≈ 122 µM).

Question: What about the MBC (S. aureus; Staphylococcus aureus, read-out: S. aureus MBC) of the same compound?
Answer: The MBC was 62.5 µg/mL (≈ 244 µM).

Question: What about the melting point of the same compound?
Answer: The melting point was 240 to 242 °C.

Question: What about the “IC50 DPPH” value [1] of the same compound?
Answer: The value was 69.40 µg/mL (≈ 271 µM).

Question: What about the “% inhibition of DPPH” value ([1]; 1.56 µg ml^−1) of the same compound?
Answer: Its value is 7.89%.

Question: And the “% inhibition of DPPH” value ([1]; 3.12 µg ml^−1)?
Answer: Its value is 12.68%.

Question: And the “% inhibition of DPPH” value ([1]; 6.25 µg ml^−1)?
Answer: Its value is 19.80%.

Question: What about the “% inhibition of DPPH” value ([1]; 12.5 µg ml^−1) of the same compound?
Answer: Its value is 26.18%.

Question: What about the “% inhibition of DPPH” value ([1]; 25 µg ml^−1) of the same compound?
Answer: The value was 34.89%.

Question: What about the “% inhibition of DPPH” value ([1]; 50 µg ml^−1) of the same compound?
Answer: Its value is 47.56%.

Question: What about the “% inhibition of DPPH” value ([1]; 100 µg ml^−1) of the same compound?
Answer: Its value is 56.78%.

Question: With `CO/N=C(\C(=O)N[C@@H]1C(=O)N2C(C(=O)O)=C(COC(C)=O)CS[C@H]12)c1csc(N)n1` [Cefotaxime, cefotaxime, reference compound] as the compound, how does the MIC (S. typhi) read?
Answer: Its MIC is 3.9 µg/mL (≈ 8.56 µM).

Question: And the MBC (S. typhi)?
Answer: Its MBC is 7.81 µg/mL (≈ 17.1 µM).

Question: And the MBC (B. subtilis; [7])?
Answer: Its MBC is 7.81 µg/mL (≈ 17.1 µM).

Question: And the MIC (B. subtilis; Bacillus subtilis; 24 h at 37 ± 2 °C; read-out: B. subtilis MIC)?
Answer: The MIC was 1.95 µg/mL (≈ 4.28 µM).

Question: What about the MIC (E. coli; [8]) of the same compound?
Answer: Its MIC is 7.81 µg/mL (≈ 17.1 µM).

Question: And the MBC (E. coli)?
Answer: Its MBC is 7.81 µg/mL (≈ 17.1 µM).

Question: And the MIC (B. cereus; [3])?
Answer: Its MIC is 7.81 µg/mL (≈ 17.1 µM).

Question: What about the MBC (B. cereus; [4]) of the same compound?
Answer: The MBC was 15.6 µg/mL (≈ 34.3 µM).

Question: What about the MIC (S. aureus; [5]) of the same compound?
Answer: The MIC was 15.6 µg/mL (≈ 34.3 µM).

Question: And the MBC (S. aureus; [6])?
Answer: The MBC was 31.2 µg/mL (≈ 68.6 µM).

Question: What does the source list for `O=C1O[C@H]([C@@H](O)CO)C(O)=C1O` [Ascorbic acid, ascorbic acid, reference compound]?
Answer: IC50 DPPH [1]: 4.45 µg/mL (≈ 25.3 µM); % inhibition of DPPH ([1]; 1.56 µg ml^−1): 39.22%; % inhibition of DPPH ([1]; 3.12 µg ml^−1): 46.53%; % inhibition of DPPH ([1]; 6.25 µg ml^−1): 80.07%; % inhibition of DPPH ([1]; 12.5 µg ml^−1): 84.09%; % inhibition of DPPH ([1]; 25 µg ml^−1): 87.81%; % inhibition of DPPH ([1]; 50 µg ml^−1): 89.95%; % inhibition of DPPH ([1]; 100 µg ml^−1): 90.31%; IC50 DPPH ([1]; listed as Ascorbic Acid): 4.451 µg/mL (≈ 25.3 µM)
